{"source": "patent US20040049807A1", "about": "“Fatty acid desaturase gene and protein for modulating activation of defense signaling pathways in plants” (priority 2003, published 2004)", "key": {"[1]": {"test_system": "PR-1, BGL2 and PR-5 gene transcripts", "assay": "PR gene expression after chemical treatment of plants (northern blot)", "format": "in vivo, Arabidopsis", "method": "Chemical treatment of plants. Four-week-old plants were sprayed and sub-irrigated with a solution of SA […] or BTH […] in water as previously described (Shah et al. 1997). As controls, plants were similarly treated with water. Leaves were harvested at the indicated times after treatment and quick-frozen in liquid nitrogen. Leaf samples were stored at −80° C.\nRNA extraction, northern and dot blot analyses. Large-scale preparation of RNA from Arabidopsis was carried out Small-scale extraction of RNA from one or two leaves was performed in the TRIzol reagent (GIBCO-BRL, Gaithersburg, Md.) following manufacturer's instructions. Northern blot analysis and synthesis of random primed probes for PR-i, BGL2 and PR-5 were synthesized as described earlier (Shah et al. 1997)."}, "PDF1.2": {"test_system": "PDF1.2", "assay": "PDF1.2 gene expression (northern blot)", "format": "in vivo, Arabidopsis", "method": "FIG. 8. Expression of the SSI2 gene. (FIG. 8A) Histochemical staining of GUS activity in the leaves and inflorescence of transgenic plants expressing an SSI2::: GUS reporter gene. […] The control is a stained leaf from a wt plant. (FIG. 8B) Northern blot analysis of SSI2 (Nö), npr1-5, jar1-1 and ssi2 plants treated with water or 50 μM JA. RNA was extracted at 48 hour (h) post treatment and the blot was sequentially probed with SSI2, PDF1.2, and THI2.1. Ethidium bromide-stained rRNA served as a control for gel loading. (FIG. 8C) Northern blot analysis of plants inoculated with spores of Alternaria brassicicola. Mock (M) or fungal (A) inoculations were carried out as described previously (12). RNA was extracted at 72 h post inoculation and PDF1.2 gene expression was monitored. (FIG. 8D) Northern blot analysis of SSI2, npr1-5, jar1-1, NahG, etr1-1 and ssi2 plants treated with methanol or 50 μM MeJA. The plants were placed around a beaker containing methanol or MeJA diluted in methanol and covered with plastic wrap. RNA was prepared from leaves harvested at 48 h post treatment and analyzed for PDF1.2 gene expression.\nFIG. 10. […] Oleic acid (18:1; 0.5 mM, Sigma) or water was injected into the leaves of SSI2 (Nö), ssi2 or ssi2 nahG plants followed by treatment with 50 μM JA or water. Eight to ten individual plants each of SSI2, ssi2 or ssi2 nahG were analyzed in two independent experiments. RNA was extracted at 48 h post treatment and PDF1.2 gene expression was monitored by northern blot analysis. Ethidium bromide-stained rRNA served as a control for gel loading.\nRNA extraction and northern analyses. Small-scale extraction of RNA from one or two leaves was performed in the TRIzol reagent (GIBCO-BRL, Gaithersburg, Md.) following the manufacturer's instructions. Northern blot analysis and synthesis of random primed probes for PR-1, BGL2 and PR-5, PDF1.2 and THI2.1 were synthesized."}, "THI2.1": {"test_system": "THI2.1", "assay": "THI2.1 gene expression (northern blot)", "format": "in vivo, Arabidopsis", "conditions": "ssi2 plants", "method": "FIG. 8. Expression of the SSI2 gene. (FIG. 8A) Histochemical staining of GUS activity in the leaves and inflorescence of transgenic plants expressing an SSI2::: GUS reporter gene. A 1631 bp fragment containing the SSI2 promoter was transcriptionally fused upstream of GUS in pBI121 and three independent transgenic lines were analyzed in both T1 and T2 generations. The control is a stained leaf from a wt plant. (FIG. 8B) Northern blot analysis of SSI2 (Nö), npr1-5, jar1-1 and ssi2 plants treated with water or 50 μM JA. RNA was extracted at 48 hour (h) post treatment and the blot was sequentially probed with SSI2, PDF1.2, and THI2.1. Ethidium bromide-stained rRNA served as a control for gel loading. (FIG. 8C) Northern blot analysis of plants inoculated with spores of Alternaria brassicicola. Mock (M) or fungal (A) inoculations were carried out as described previously (12). RNA was extracted at 72 h post inoculation and PDF1.2 gene expression was monitored. (FIG. 8D) Northern blot analysis of SSI2, npr1-5, jar1-1, NahG, etr1-1 and ssi2 plants treated with methanol or 50 μM MeJA. The plants were placed around a beaker containing methanol or MeJA diluted in methanol and covered with plastic wrap. RNA was prepared from leaves harvested at 48 h post treatment and analyzed for PDF1.2 gene expression.\nRNA extraction and northern analyses. […]"}, "root growth": {"test_system": "root growth", "assay": "inhibition of root growth", "format": "in vivo, Arabidopsis", "conditions": "ssi2 plants"}, "B. cinerea": {"test_system": "B. cinerea", "assay": "disease resistance to B. cinerea", "format": "in vivo, Arabidopsis", "conditions": "exogenously applied, ssi2 or ssi2 nahG plants", "method": "FIG. 9. Analysis of disease resistance to B. cinerea. Infections with B. cinerea were carried out by wounding the leaves by needle pricks and subsequently spot inoculating spores at the wounded site. The number of pricks made per leaf were based on the leaf size and ranged from three per leaf for SSI2 (Nö) to one per leaf for the ssi2 mutant. Plants were treated with either water or 50 μM JA for 48 h prior to and throughout the infection and the inoculated leaves were photographed at 10 dpi."}, "SSI2 gene expression": {"test_system": "SSI2 gene expression", "assay": "SSI2 gene expression after treatment (northern analysis)", "format": "in vivo, Arabidopsis", "conditions": "12, 24 or 48 hours after treating plants"}, "[2]": {"assay": "in vitro S-ACP desaturase assay"}}, "data": [{"molecule": "CCCCCCCCCCCCCCCCCC(=O)O", "note": "[18:0, stearic acid]", "values": [{"measurement": "PR-1 gene expression", "setting": "[1]; exogenous application, wt plants", "result": "does not induce"}]}, {"molecule": "c1ccc2snnc2c1", "note": "[BTH, benzothiadiazole]", "values": [{"measurement": "accumulation of PR-1 transcript", "setting": "[1]; ssi2 NPR1 nahG plants", "result": "increased"}, {"measurement": "PR-1 expression", "setting": "[1]; ssi2 npr1-5 nahG plants", "result": "not"}]}, {"molecule": "CC/C=C\\C[C@H]1C(=O)CC[C@@H]1CC(=O)O", "note": "[JA, jasmonic acid]", "values": [{"measurement": "PDF1.2 expression", "setting": "PDF1.2; ssi2 NPR1, ssi2 npr1-5 or jar1-1 plants, 50 μM, 48 h", "result": "induced only low to undetectable levels"}, {"measurement": "PDF1.2 expression", "setting": "PDF1.2; wt and npr1-5 plants, 50 μM, 48 h", "result": "activated PDF1.2 expression effectively"}, {"measurement": "induced activation of the THI2.1 gene", "setting": "THI2.1", "result": "unaffected"}, {"measurement": "inhibition of root growth", "setting": "root growth", "result": "unaffected"}, {"measurement": "B. cinerea resistance", "setting": "B. cinerea", "result": "failed to restore"}, {"measurement": "SSI2 gene expression", "setting": "SSI2 gene expression", "result": "did not increase substantially over basal levels"}]}, {"molecule": "CC/C=C\\CC1C(=O)CCC1CC(=O)OC", "note": "(stereo not drawn) [MeJA, methyl JA]", "values": [{"measurement": "inhibition of root growth", "setting": "root growth", "result": "unaffected"}, {"measurement": "B. cinerea resistance", "setting": "B. cinerea", "result": "failed to restore"}]}, {"molecule": "O=C(O)c1ccccc1O", "note": "[SA, salicylic acid]", "values": [{"measurement": "accumulation of the PR gene transcripts", "setting": "[1]; exogenous application, ssi2 npr1-5 plant", "result": "did not further increase"}, {"measurement": "SSI2 gene expression", "setting": "SSI2 gene expression", "result": "did not increase substantially over basal levels"}]}, {"molecule": "C=C", "note": "[ethylene]", "values": [{"measurement": "PDF1.2 expression", "setting": "PDF1.2; 10 or 20 parts per million, ssi2 plants", "result": "not"}, {"measurement": "PDF1.2 expression", "setting": "PDF1.2; 10 or 20 parts per million, wt plants", "result": "induced PDF1.2 expression"}, {"measurement": "SSI2 gene expression", "setting": "SSI2 gene expression", "result": "did not increase substantially over basal levels"}]}, {"molecule": "mutant protein: ssi2 mutant S-ACP desaturase with leucine 146 changed to phenylalanine, bacterial-expressed (LRERARELPDDYFVVLVGDMITEEAFPTYQTMLNTLDGVRDETGASPTSWAIWTRAWTAE; (26)..(26) Phe residue instead of Leu present at position corresponding to residue 146 of wild type.; listed as Arabidopsis thaliana)", "values": [{"measurement": "fold less active than wt", "setting": "[2]; 16:0 substrate", "result": "~20", "unit": "fold"}, {"measurement": "fold less active than wt", "setting": "[2]; 18:0 substrate", "result": "approximately 10 fold"}, {"measurement": "18:16 substrate preference ratio and Δ^9 regiospecificity", "setting": "[2]; in contrast to the wt", "result": "unaltered"}, {"measurement": "activity lower than that of the wt enzyme", "setting": "[2]; overall summary", "result": "10-20 fold"}]}, {"molecule": "Wt SSI2: wild-type Arabidopsis SSI2 stearoyl-ACP desaturase (SEQ ID NO:3), expressed in Escherichia coli and purified (protein, listed as Arabidopsis thaliana) MALKFNPLVASQPYKFPSSTRPPTPSFRSPKFLCLASSSPALSSGPKEVESLKKPFTPPREVHVQVLHSMPPQKIEIFKSMENWAEENLLIHLKDVEKSWQPQDFLPDPASDGFEDQVRELRERARELPDDYFVVLVGDMITEEALPTYQTMLNTLDGVRDETGASPTSWAIWTRAWTAEENRHGDLLNKYLYLSGRVDMRQIEKTIQYLIGSGMDPRTENNPYLGFIYTSFQERATFISHGNTARQAKEHGDIKLAQICGTIAADEKRHETAYTKIVEKLFEIDPDGTVMAFADMMRKKISMPAHLMYDGRNDNLFDNFSSVAQRLGVYTAKDYADILEFLVGRWKIQDLTGLSGEGNKAQDYLCGLAPRIKRLDERAQARAKKGPKIPFSWIHDREVQL", "values": [{"measurement": "specific activity", "setting": "[2]; purified enzyme expressed in Escherichia coli", "result": "~800", "unit": "nm/min/mg"}]}]}
